Results on one compound are retold here after patent publication US11352360B2, “TGF-beta inhibitors” (Rigel Pharmaceuticals, Inc., priority 2015, dated 2022).

Assay [1] concerns GDF8 signaling (p-SMAD-3 Ser423/425). Kind of assay: AlphaScreen SureFire SMAD3 (p-Ser423/425) assay, GDF8-stimulated. It counts as cell-based. The note with it: inhibition of GDF8 signaling, pSMAD, MPC11; read-out: GDF8 (GDF pSMAD (MPC11)). For orientation: In Alpha technology, singlet oxygen from a donor bead excites a nearby acceptor bead.
Assay [2] has as its system TGF-β signaling (p-SMAD-3 Ser423/425). The assay can be described thus: AlphaScreen SureFire SMAD3 (p-Ser423/425) assay, TGF-β-stimulated. It counts as cell-based. The note with it: inhibition of TGF-β signaling, pSMAD, MPC-11.

In the case of `COc1ccc(-c2nc(N)sc2-c2ccc3[nH]ncc3c2)cc1` [Compound 157, 5-(1H-indazol-5-yl)-4-(4-methoxyphenyl)thiazol-2-amine], the IC50 in assay [1] came out at 25.6 nM; in assay [2], 160 nM.
